Reference: ChEMBL document CHEMBL1201862, “PubChem BioAssay data set” (2004)
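Step 1: Grow cells in 96-well plates. Step 2: Expose to compound for 48 hours at 5 concentrations. Step 3: Interpolate endpoints linearly; if unreached, use highest concentration. At the GI50, growth is halved.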 The source made the active and inactive calls. Rule as the data show it: active = GI50 up to about 1.1 µM and inactive = higher.

Tests used:
Test in all cases: DTP human tumour cell line panel, 48 h
[1] = tested on: HCC 2998
[2] = tested on: KM12
[3] = tested on: UO-31
[4] = tested on: RXF 393
[5] = tested on: HCT-15
[6] = tested on: Malme-3M
[7] = tested on: COLO 205
[8] = tested on: KM-20L2
[9] = tested on: OVCAR-4
[10] = tested on: DMS-114
[11] = tested on: RPMI-8226
[12] = tested on: HOP-62
[13] = tested on: SF-268
[14] = tested on: SK-OV-3
[15] = tested on: EKVX
[16] = tested on: NCI-H522
[17] = tested on: UACC-62
[18] = tested on: SK-MEL-5
[19] = tested on: OVCAR-5
[20] = tested on: U-251

Measured: GI50

[O-][S+]1c2ccccc2N=C(c2cccs2)CC1c1ccccc1O (stereo not drawn)
> 100 µM: [5]
inactive: [1] 96.6 µM | [2] 93.5 µM | [3] > 100 µM | [4] 63.1 µM | [6] > 100 µM | [7] > 100 µM | [8] > 100 µM | [9] > 100 µM | [10] 37.2 µM | [11] > 100 µM | [12] 97.5 µM | [13] > 100 µM | [14] > 100 µM | [15] > 100 µM | [16] 65.2 µM | [17] 56.2 µM | [18] > 100 µM | [19] > 100 µM

CCOC(=O)C12C(C(=O)OC)=C(C)N(NC(=O)Nc3ccccc3)C1(N)N(NC(=O)Nc1ccccc1)C(C)=C2C(=O)OC (stereo not drawn)
35.2 µM: [5]
inactive: [1] 25.2 µM | [2] 19.2 µM | [3] 40 µM | [4] 29.2 µM | [6] 21.6 µM | [7] > 41.1 µM | [8] 20.5 µM | [9] 39.8 µM | [10] 31.9 µM | [11] 25.9 µM | [12] 20.5 µM | [13] 31.3 µM | [14] > 59.8 µM | [15] 43.5 µM | [20] 17.7 µM | [16] 20.9 µM | [17] 18 µM | [18] 19.9 µM | [19] 38.5 µM

O=C(NCC(O)CNC(=O)C(F)(F)F)C(F)(F)F
inactive: [1] > 100 µM | [2] > 100 µM | [3] > 100 µM | [4] > 100 µM | [6] > 100 µM | [7] > 100 µM | [8] > 100 µM | [9] > 100 µM | [10] > 100 µM | [11] > 100 µM | [12] > 100 µM | [13] > 100 µM | [14] > 100 µM | [15] > 100 µM | [20] > 100 µM | [16] > 100 µM | [17] > 100 µM | [18] > 100 µM | [19] > 100 µM
> 100 µM: [5]

O=C(O)CCC(N/C=C1/N=C(c2ccccc2)OC1=O)C(=O)O (stereo not drawn)
> 100 µM: [5]
inactive: [1] > 100 µM | [2] > 100 µM | [3] > 100 µM | [4] > 100 µM | [6] > 100 µM | [7] > 100 µM | [8] > 100 µM | [9] > 100 µM | [10] > 100 µM | [11] > 100 µM | [12] > 100 µM | [13] > 100 µM | [14] > 100 µM | [15] > 100 µM | [20] > 100 µM | [16] > 100 µM | [17] > 100 µM | [18] > 100 µM | [19] > 100 µM

CC(=O)c1sc(-c2nc(C)c(C(=O)/C=C\c3ccc(/C=C\C(=O)c4sc(-c5nc(C)c(C(C)=O)s5)nc4C)cc3)s2)nc1C
inactive: [1] > 100 µM | [2] > 100 µM | [3] > 100 µM | [4] > 100 µM | [6] > 100 µM | [7] > 100 µM | [8] > 100 µM | [9] > 100 µM | [10] > 100 µM | [11] 50.5 µM | [12] > 100 µM | [13] > 100 µM | [14] > 100 µM | [15] > 100 µM | [20] > 100 µM | [16] > 100 µM | [17] 85.9 µM | [19] > 100 µM
> 100 µM: [5]

Cn1c(N)nc(=O)c2c1N(C1OC(CO)C(O)C1O)CN2Cc1ccccc1 (stereo not drawn)
> 100 µM: [5]
inactive: [1] > 100 µM | [2] > 100 µM | [3] > 100 µM | [4] > 100 µM | [6] > 100 µM | [7] > 100 µM | [8] > 100 µM | [9] > 100 µM | [10] > 100 µM | [11] > 100 µM | [12] > 100 µM | [13] > 100 µM | [14] > 100 µM | [15] > 100 µM | [20] > 100 µM | [16] > 100 µM | [17] > 100 µM | [18] > 100 µM | [19] > 100 µM

COC(=O)[C@@]12C(=O)CCC(=O)C1C1C(=CC2C)O[C@@H]2OC3(CCCCC3)O[C@H]12 (stereo partly drawn)
54.2 µM: [5]
inactive: [1] > 100 µM | [2] 64.1 µM | [3] > 100 µM | [4] 69.2 µM | [6] > 100 µM | [7] > 68.1 µM | [8] > 100 µM | [9] 59.2 µM | [10] 48 µM | [11] 19 µM | [12] > 100 µM | [13] > 91.2 µM | [14] > 100 µM | [15] 99.8 µM | [20] > 100 µM | [16] 18.6 µM | [17] > 88.7 µM | [18] > 100 µM | [19] > 100 µM
